Source: US10968190B2, “Processes for preparing oxathiazin-like compounds” (GEISTLICH PHARMA AG, priority 2014, dated 2021)
In brackets after ≈: the same amount, converted by molar mass. Where two headings read alike, the source gives them in different places.

Key:
[1] = system: human glioma cell line LN-229; experiment: Cytotoxicity assay in LN-229 cells (crystal violet); type: cell-based; conditions: for OD (absorbance at 540 nm; high values = high cell viability): 24 h; for EC50: Homo sapiens, LN-229, 24 h
Procedure: Cell lines: The human glioma cell line LN-229 was used as described previously (Rodak et al. 2005) as well as the human colon adenocarcinoma cell line SW480.
Cytotoxicity assay: Dissociated LN-229 cells were seeded into 96-well plates at a density of 10^4 cells per well in 100 μl of culture medium. […] Triplicate cultures were prepared for each sample. After 24 h of incubation at […], the remaining adherent viable cells were stained using crystal violet as described (Rodack et al. 2005). Cell viability was determined by measuring the absorbancy at 540 nm. The results are expressed as killing rate given by the difference between 100% of cells and percentage of cells surviving. EC50 values correspond to the concentration inducing 50% cell death.

[2] = Half-life in human fresh blood in vitro by GC; type: in vitro ADME; conditions: 37° C.
Staphylococcus aureus = experiment: Antibacterial activity against Staphylococcus aureus; type: cell-based
Escherichia coli = experiment: Antibacterial activity against Escherichia coli; type: cell-based
[3] = system: MRSA lines 188, 189, 193, 194 and 195; experiment: Punch plate tests against MRSA; type: cell-based
[4] = system: cancers identified herein; experiment: Administration to patients having cancers (Example 5); type: in vivo; conditions: Example 5, present tense
Procedure: Each of these compounds is administered with Vitamin D3, a derivative, metabolite or analog thereof and the combination is found to increase the anti-tumor effects of the compounds.

[5] = system: tumor cell lines AsPC-1, BxPC-3 and HCT-116; experiment: Inhibition of cell viability in tumor cell lines; type: cell-based; conditions: read-out: Half-maximal inhibition of cell viability
Excerpt: These effects are similar to those observed in glioma cell line LN-229. The induction of cell death was due to apoptosis and necrosis (most likely necroptosis). […] Thus, there is a redox-directed mechanism of action.

[6] = system: pancreas tumor cells (AsPC-1, BxPC-3 and HCT-116); experiment: Growth inhibition of pancreas tumor cells; type: cell-based; conditions: read-out: half-maximal concentration of growth inhibition
Procedure: The growth of pancreas tumor cells (AsPC-1, BxPC-3 and HCT-116) was inhibited by compound 2250 with a half-maximal concentration of 300 μM, which is considerably lower than the concentration needed to elicit cytotoxicity.

[7] = system: multicellular pancreatic tumor (Panc Tul or BxPC-3) spheroids; experiment: Pancreatic stem cell-like multicellular spheroid toxicity assay; type: cell-based; conditions: taurolidine 500 μM, compound 2250 1000 μM, 48 hours
Excerpt: Multicellular spheroids are composed of tumor cells growing in a 3-dimensional structure stimulating the growth, micro-environmental conditions and stem cell-like characteristics of real tumors. The multicellular tumor spheroid (MCTS) model compensates for many of the deficiencies seen in monolayer cultures. Spheroids on the scale of 200-500 μm develop chemical gradients of oxygen, nutrients, and catabolites, while having morphological and functional features similar to tumors. Therefore, assays utilizing the MCTS model allow for the assessment of drug penetration and are more predictive of in vivo success compared with monolayer cultures. MCTS assays are a tumor model system of intermediate complexity between standard monolayer and tumors in vivo.
Pancreatic tumor cells (Panc Tu-1, BxPC-3, Mia Paca-2, ASPC1) and pancreatic primary tumor cells (Bo80) were seeded in ultra-low adhesion plates in special stem cell media.
Pancreatic tumor cells (ASPC1, Mia Paca-2, Panc Tul, BxPC-3) and pancreatic primary tumor cells (Bo80) were raised in monolayer culture before seeding in ultra low adhesion plates under conditions of special stem cell media to form multicellular spheroids and passed through a cell strainer to exclude aggregates. […]

MiaPaca2 tumor = experiment: MiaPaca2 subcutaneous tumor model in nude mice; type: in vivo, nude mice (NMRI-Foxn1 nu/nu); conditions: 500 mg/kg i.p. on alternating days
PancTu I tumor = experiment: PancTu I subcutaneous tumor model in nude mice; type: in vivo, nude mice (NMRI-Foxn1 nu/nu); conditions: 500 mg/kg i.p. on alternating days
[8] = system: pancreatic primary tumors (Bo 73); experiment: Xenograft model of pancreatic primary tumors Bo 73; type: in vivo; conditions: Bo 73, observed for 15 days; differences not statistically relevant
Excerpt: (§1) However, the differences in tumor volumes were not statistically relevant, likely due to the short duration of the study and the slow growth rate of the tumors.

[9] = system: pancreatic primary tumors (Bo 70); experiment: Xenograft model of pancreatic primary tumors Bo 70; type: in vivo; conditions: Bo 70, observed for 23 days
Excerpt: as §1

[10] = Water solubility and isotonicity; type: physicochemical
Excerpt: In certain embodiments, no PVP necessary to increase the solubility. For example, a 3.2% solution 2250 is isotonic. This is an unexpected advantage over taurolidine.

[11] = Toxicity in mice during the tumor study; conditions: 500 mg/kg i.p. on alternating days
Procedure: 1×10^7 tumor cells (PancTu-I and MiaPaca 2) were injected subcutaneously into the flank.
Tumors were grown to a size of 200 mm^3 before the treatment was started. Mice were treated on alternating days with 500 mg/kg*body weight (BW).

Q: With O=S1(=O)CCOCN1 [compound 2250, Tetrahydro1,4,5-oxathiazin-4-dioxide] as the molecule, how does the “OD (absorbance at 540 nm; high values = high cell viability)” value ([1]; 4 μg/ml) read?
A: 1.477

Q: And the “OD (absorbance at 540 nm; high values = high cell viability)” value ([1]; 8 μg/ml)?
A: 1.527

Q: And the “OD (absorbance at 540 nm; high values = high cell viability)” value ([1]; 15.5 μg/ml)?
A: 1.482

Q: What about the “OD (absorbance at 540 nm; high values = high cell viability)” value ([1]; 31 μg/ml) of the same molecule?
A: 1.482

Q: And the “OD (absorbance at 540 nm; high values = high cell viability)” value ([1]; 62.5 μg/ml)?
A: 0.372

Q: And the “OD (absorbance at 540 nm; high values = high cell viability)” value ([1]; 250 μg/ml)?
A: 0.120

Q: What about the “OD (absorbance at 540 nm; high values = high cell viability)” value ([1]; 500 μg/ml) of the same molecule?
A: 0.141

Q: What about the “OD (absorbance at 540 nm; high values = high cell viability)” value ([1]; 1000 μg/ml) of the same molecule?
A: 0.189

Q: What about the EC50 ([1]; read-out: EC50 (concentration inducing 50% cell death), LN-229 cells, 24 h incubation) of the same molecule?
A: 45 µg/mL (≈ 328 µM)

Q: What about the EC50 ([1]; read-out: half-maximal concentration of inducing cell death EC50) of the same molecule?
A: 50 µg/mL (≈ 365 µM)

Q: And the “concentration in human fresh blood” value ([2]; After 1 hour)?
A: 50.6 ppm

Q: And the “concentration in human fresh blood” value ([2]; After 2 hours)?
A: 47.6 ppm

Q: What about the “concentration in human fresh blood” value ([2]; After 20 hours) of the same molecule?
A: 38.6-39.0 ppm

Q: And the “concentration in human fresh blood” value ([2]; Baseline Value)?
A: 49.0 ppm

Q: And the half-life at 49 ppm ([2]; human fresh blood, in vitro)?
A: > 1440 min

Q: What about the “antibacterial activity relative to Taurultam” value (Staphylococcus aureus; Staph. aureus) of the same molecule?
A: about double as high as Taurultam

Q: What about the antibacterial activity (Staphylococcus aureus; Staphylococcus aureus) of the same molecule?
A: very high level of antibacterial activity

Q: What about the antibacterial activity (Escherichia coli) of the same molecule?
A: very high level of antibacterial activity

Q: What about the “activity in punch plate tests” value [3] of the same molecule?
A: highly active

Q: And the “effectiveness in treating cancers in patients” value [4]?
A: effective in treating such cancers

Q: What about the “safety for use in patients” value [4] of the same molecule?
A: safe for use in patients

Q: What about the IC50 [5] of the same molecule?
A: 750 to 1000 µM

Q: What about the IC50 [6] of the same molecule?
A: 300 µM

Q: And the “effect on pancreatic stem cell like multicellular spheroid cultures” value [7]?
A: antineoplastic effect

Q: And the “decrease of MiaPaca2 tumor volume compared to control” value (MiaPaca2 tumor)?
A: over 3 fold

Q: What about the “decrease of PancTu I tumor volume compared to control” value (PancTu I tumor) of the same molecule?
A: about 2 fold

Q: What about the “relative tumor volume compared to control” value [8] of the same molecule?
A: further reduced relative tumor volume compared to control

Q: And the “tumor volume compared to control” value [9]?
A: significantly reduce tumor volume compared to control

Q: And the solubility in water [10]?
A: very soluble in water

Q: And the “concentration of isotonic solution” value ([10]; no PVP)?
A: 3.2%

Q: And the “toxic effect on the mice during the study” value [11]?
A: no toxic effect
